The numbers were not newly measured in patent publication US12263173B2, “PLK1 inhibitor in combination with anti-angiogenics for treating metastatic cancer” (CARDIFF ONCOLOGY, INC., priority 2022, dated 2025), which cites them from elsewhere.

Like-named read-outs stand apart in the source and are kept apart here.

In data set [1] the test system is HT29 human colon adenocarcinoma xenografts. The settings on record: in combination with irinotecan.
The target of data set [2] is PLK1 (Homo sapiens, UniProt P53350).
Data set [3] has as its system AML cell lines.
Data set [4] concerns patients with advanced/metastatic solid tumors. The settings on record: reversible.
Data set [5] has as its system disseminated model of AML.
Data set [6] has as its system xenograft models.
For data set [7], the system named is patients with AML who were treatment naïve yet unsuitable for induction therapy. The settings on record: administered intravenously in combination with LDAC.
The subject of data set [8] is patients with AML. The settings on record: in combination with LDAC.
In data set [9] the test system is patients with and without prior bevacizumab treatment. The settings on record: second line.
Setting [10] is: bev naïve (without prior bevacizumab).

Sequence of PLK1 (P53350 whole entry): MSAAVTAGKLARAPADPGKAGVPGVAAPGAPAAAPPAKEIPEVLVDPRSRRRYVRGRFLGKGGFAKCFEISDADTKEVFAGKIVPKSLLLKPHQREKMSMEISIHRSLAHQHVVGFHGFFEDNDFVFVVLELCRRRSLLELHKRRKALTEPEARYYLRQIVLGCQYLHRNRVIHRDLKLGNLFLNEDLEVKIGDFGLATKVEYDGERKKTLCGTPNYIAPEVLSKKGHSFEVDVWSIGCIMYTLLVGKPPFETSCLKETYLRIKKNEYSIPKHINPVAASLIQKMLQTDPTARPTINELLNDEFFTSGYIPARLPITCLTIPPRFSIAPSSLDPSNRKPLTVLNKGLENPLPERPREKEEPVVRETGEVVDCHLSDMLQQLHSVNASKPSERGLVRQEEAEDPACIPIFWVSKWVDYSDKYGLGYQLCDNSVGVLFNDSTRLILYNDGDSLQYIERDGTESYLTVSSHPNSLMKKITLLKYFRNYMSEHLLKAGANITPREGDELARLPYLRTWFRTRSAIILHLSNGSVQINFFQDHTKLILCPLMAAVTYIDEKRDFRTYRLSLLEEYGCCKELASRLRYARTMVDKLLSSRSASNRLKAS

In the case of `CN1CCN(c2ccc(OC(F)(F)F)c(Nc3ncc4c(n3)-c3c(c(C(N)=O)nn3CCO)CC4)c2)CC1` [onvansertib, 1-(2-hydroxyethyl)-8-{[5-(4-methylpiperazin-1-yl)-2-(trifluoromethoxy)phenyl]amino}-4,5-dihydro-1H-pyrazolo[4,3-h]quinazoline-3-carboxamide], the “tumor regression compared to each agent alone” value in [1] was “enhanced tumor regression”. For the same compound, in data set [2] (among a panel of 296 kinases, including other PLK members), the “specificity for PLK1” value is listed as “high specificity”. Further, the “potency and specificity for the PLK1 isozyme versus volasertib” value in data set [2] (compared with volasertib (BI6727)) is “higher degree of potency and specificity”. Moreover, in [3], the “inhibition of cell proliferation” value is given as “nanomolar concentrations”. For the same compound, the “recovery of hematologic toxicities” value in [4] was no more than 3 weeks. In data set [5] (in combination therapy with cytarabine), the survival of animals entry was “prolonged survival”. In addition, the “effect on cytarabine antitumor activity” value in data set [5] (in combination with cytarabine) is “significantly increased”. For the same compound, in data set [6] (well tolerated doses in mice after oral administration), the xenograft tumor growth result is “inhibits xenograft tumor growth”. The tumor growth result in data set [6] (xenograft models of AML) is “inhibited”.
Consider `CC[C@@H]1C(=O)N(C)c2cnc(Nc3ccc(C(=O)N[C@H]4CC[C@H](N5CCN(CC6CC6)CC5)CC4)cc3OC)nc2N1C(C)C` [volasertib], for which the “OS compared with LDAC alone” value in [7] is “significant increase in OS”. Also, the “benefit of the combination” value in data set [8] is “no benefit”.
For the compound “bev: anti-angiogenics (angiogenesis inhibitor), Avastin”, in data set [9] (setting [10]), the mOS is 13.9 months and the mPFS was 6.9 months. Moreover, in data set [9] (prior bev), the mOS is 12.5 months and the mPFS is on record as 6.7 months.
